Data taken from EPA's ToxRefDB 2.

Experiments:
[1] = tested on: rabbit; conditions: Prenatal developmental toxicity study; new zealand white; Oral; Gavage/Intubation; dose end: 19 GD; group: maternal; systemic / in life observation / body weight / body weight + systemic / in life observation / body weight / body weight gain + systemic / in…
[2] = tested on: rat; conditions: Prenatal developmental toxicity study, other, Oral, Gavage/Intubation, dose end: 17 GD
[3] = tested on: rat; conditions: Prenatal developmental toxicity study, sprague dawley, Oral, Gavage/Intubation, dose end: 17 GD
[4] = tested on: rabbit; conditions: Prenatal developmental toxicity study, new zealand white, Oral, Gavage/Intubation, dose end: 19 GD
[5] = tested on: dog; conditions: Sub-acute repeat dose toxicity; beagle; Oral; Gavage/Intubation; dose end: 14 day; group: systemic; systemic / clinical chemistry / [other] / [other]
[6] = tested on: rat; conditions: Subchronic oral toxicity in rodents, sprague dawley, Gavage/Intubation, dose end: 93 day, group: systemic
[7] = tested on: rat; conditions: Sub-acute repeat dose toxicity, sprague dawley, Oral, Gavage/Intubation, dose end: 14 day, group: systemic
[8] = tested on: rat; conditions: Sub-acute repeat dose toxicity, sprague dawley, Oral, Gavage/Intubation, dose end: 10 day, group: systemic
[9] = tested on: rat; conditions: Sub-acute repeat dose toxicity; Oral; Gavage/Intubation; dose end: 7 day; group: systemic; systemic / hematology / erythrocyte (rbc) count differential / erythrocyte (rbc) + systemic / hematology / hematocrit (hct) / hematocrit (…
[10] = tested on: dog; conditions: Subchronic oral toxicity in nonrodent, beagle, Gavage/Intubation, dose end: 91 day, group: systemic
[11] = tested on: rat; conditions: Subchronic oral toxicity in rodents, fischer, Feed, dose end: 13 week, group: systemic
[12] = tested on: rat; conditions: Multigenerational reproductive toxicity study, sprague dawley, Oral, Feed, dose end: 2 generation, group: parental
[13] = tested on: dog; conditions: Chronic toxicity; beagle; Oral; Feed; dose end: 52 week; group: systemic; systemic / organ weight / thyroid gland / absolute + systemic / organ weight / thyroid gland / relative to body weight + systemic / …
[14] = group: developmental, systemic / in life observation / body weight / fetal weight
[15] = group: maternal, systemic / in life observation / body weight / body weight + systemic / in life observation / food consumption / food consumption
[16] = group: maternal, systemic / in life observation / body weight / body weight + systemic / in life observation / food consumption / food consumption + …
[17] = group: maternal, systemic / in life observation / food consumption / food consumption
[18] = group: maternal, systemic / in life observation / food consumption / food consumption + reproductive / reproductive performance / postimplantation loss / …
[19] = group: maternal, systemic / in life observation / body weight / body weight + systemic / in life observation / food consumption / food consumption + systemic…
[20] = systemic / in life observation / clinical signs / [other]
[21] = systemic / in life observation / clinical signs / [other] + systemic / in life observation / clinical signs / salivation
[22] = systemic / clinical chemistry / [other] / [other] + systemic / in life observation / clinical signs / [other] + systemic / in life …
[23] = systemic / in life observation / body weight / body weight gain + systemic / in life observation / food consumption / food consumption
[24] = systemic / in life observation / food consumption / food consumption
[25] = systemic / in life observation / clinical signs / abnormal feces + systemic / in life observation / clinical signs / emesis
[26] = systemic / in life observation / clinical signs / abnormal feces + systemic / in life observation / clinical signs / emesis + systemic / …
[27] = systemic / in life observation / body weight / body weight + systemic / in life observation / food consumption / food consumption + systemic…
[28] = systemic / in life observation / body weight / body weight + systemic / pathology microscopic / thyroid gland / hyperplasia
[29] = systemic / pathology microscopic / thyroid gland / hyperplasia + systemic / pathology microscopic / thyroid gland / hypertrophy + systemic…

## CCCOc1sc(C(=O)N2CCC(c3cc(CN)ccc3F)CC2)c(C)c1Br.Cl [AVE8923]
[1]
  LEL: 50 mg/kg/day
  LOAEL: > 300 mg/kg/day
  NEL: < 50 mg/kg/day
  NOAEL: ≥ 300 mg/kg/day
[2]; [14]
  LEL: 100 mg/kg/day
  LOAEL: 100 mg/kg/day
  NEL: 25 mg/kg/day
  NOAEL: 25 mg/kg/day
[2]; [15]
  NEL: 25 mg/kg/day
  NOAEL: 25 mg/kg/day
[2]; [16]
  LEL: 100 mg/kg/day
  LOAEL: 100 mg/kg/day
[3]; [14]
  LEL: 75 mg/kg/day
  LOAEL: 75 mg/kg/day
  NEL: 25 mg/kg/day
  NOAEL: 25 mg/kg/day
[3]; [17]
  LEL: 75 mg/kg/day
  LOAEL: 75 mg/kg/day
[3]; [18]
  NEL: 25 mg/kg/day
  NOAEL: 25 mg/kg/day
[4]; [14]
  LEL: 200 mg/kg/day
  LOAEL: > 200 mg/kg/day
  NEL: 100 mg/kg/day
  NOAEL: ≥ 200 mg/kg/day
[4]; [19]
  LEL: 200 mg/kg/day
  LOAEL: > 200 mg/kg/day
  NEL: 100 mg/kg/day
  NOAEL: ≥ 200 mg/kg/day

## CCOc1ccc2[nH]cc(C(=O)NCc3ccccc3)c(=O)c2n1
[5]
  LEL: 26 mg/kg/day
  LOAEL: > 26 mg/kg/day
  NEL: 6 mg/kg/day
  NOAEL: ≥ 26 mg/kg/day
[6]; [20]
  LEL: 10 mg/kg/day
  NEL: < 10 mg/kg/day
[6]; [21]
  LOAEL: > 240 mg/kg/day
  NOAEL: ≥ 240 mg/kg/day
[7]; [22]
  LOAEL: > 198 mg/kg/day
  NOAEL: ≥ 198 mg/kg/day
[7]; [20]
  LEL: 10 mg/kg/day
  NEL: < 10 mg/kg/day
[8]; [23]
  LOAEL: > 160 mg/kg/day
  NOAEL: ≥ 160 mg/kg/day
[8]; [24]
  LEL: 5 mg/kg/day
  NEL: < 5 mg/kg/day
[9]
  LEL: 240 mg/kg/day
  LOAEL: > 240 mg/kg/day
  NEL: < 240 mg/kg/day
  NOAEL: ≥ 240 mg/kg/day
[10]; [25]
  LEL: 1 mg/kg/day
  NEL: < 1 mg/kg/day
[10]; [26]
  LOAEL: > 80 mg/kg/day
  NOAEL: ≥ 80 mg/kg/day

## S=C1NCCN1 [Ethylene thiourea]
[11]; [27]
  LOAEL: > 150 mg/kg/day
  NOAEL: ≥ 150 mg/kg/day
[11]; [28]
  LEL: 12 mg/kg/day
  NEL: < 12 mg/kg/day
[12]; systemic / pathology microscopic / thyroid gland / hyperplasia + systemic / pathology microscopic / thyroid gland / hypertrophy
  LOAEL: 1.25 mg/kg/day
[12]; [29]
  LEL: 1.25 mg/kg/day
  NEL: 0.125 mg/kg/day
  NOAEL: 0.125 mg/kg/day
[13]
  LEL: 1.79 mg/kg/day
  LOAEL: 1.79 mg/kg/day
  NEL: 0.19 mg/kg/day
  NOAEL: 0.19 mg/kg/day
